For 8 compounds, GI50 and TGI results are on record in PubChem BioAssay (NCI).

Some test systems named below: COLO 205 colon; SNB-19 CNS; K-562 leukemia; ACHN renal; M14 melanoma; OVCAR-4 ovarian; NCI-H460 lung; SF-539 CNS; HCC-2998 colon; SF-268 CNS.
Test in all cases: DTP human tumour cell line panel, 48 h

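A five-concentration, 48-hour dose response in 96-well plates underlies each endpoint, interpolated linearly between surrounding concentrations. GI50 marks 50% less growth. TGI: total growth inhibition.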

Consider `CCN1C(=O)N(CC)C2C1NN=c1s/c(=C\c3ccco3)c(=O)n12` (stereo not given), for which the 50% growth inhibitory concentration (GI50) (as a rule, the concentration giving 50% growth inhibition) in the assay on COLO 205 colon is 0.403 µM; with SNB-19 CNS it was 0.741 µM; in the assay on K-562 leukemia it was 0.311 µM; in the assay with ACHN renal it was 0.818 µM; in the assay on M14 melanoma, 0.415 µM; with OVCAR-4 ovarian, 4.24 µM. The GI50 in the assay on NCI-H460 lung is 0.403 µM; in the assay with SF-539 CNS it was 0.402 µM; in the assay on HCC-2998 colon, 1.98 µM; with SF-268 CNS, 0.791 µM. Besides, the total growth inhibition concentration (TGI) (in general, the concentration at which net growth stops) with COLO 205 colon was over 23.6 µM; with SNB-19 CNS, over 100 µM; in the assay on K-562 leukemia, over 100 µM; with ACHN renal, over 100 µM; in the assay with M14 melanoma, over 35.5 µM; in the assay with OVCAR-4 ovarian it was over 100 µM. The total growth inhibition concentration (TGI) in the assay with NCI-H460 lung was over 100 µM; in the assay with SF-539 CNS it was 6.48 µM; in the assay on HCC-2998 colon, over 100 µM; in the assay on SF-268 CNS, over 100 µM.

With `N=N/C(=C\c1c(O)[nH]c2ccccc12)c1ccccc1`, the total growth inhibition concentration (TGI) in the assay on COLO 205 colon is 54.6 µM; with SNB-19 CNS, over 92.9 µM; in the assay on K-562 leukemia, over 100 µM; in the assay on ACHN renal, over 100 µM; in the assay with M14 melanoma, over 65.9 µM; with OVCAR-4 ovarian, over 100 µM. In addition, the TGI was over 100 µM in the assay with NCI-H460 lung, 37.9 µM with SF-539 CNS, 63 µM with HCC-2998 colon and over 100 µM in the assay on SF-268 CNS.

In the case of `CCNC(=O)Nc1ccc(Oc2ccnc3ccc4c(ccn4C)c23)cc1`, the GI50 in the assay with COLO 205 colon was 29.8 µM; in the assay on SNB-19 CNS, 40.1 µM; with K-562 leukemia, 47.4 µM; with ACHN renal, 59.2 µM; in the assay with M14 melanoma, over 100 µM; in the assay on OVCAR-4 ovarian, 54.2 µM. Further, the GI50 with NCI-H460 lung is 25 µM; with SF-539 CNS, 23.6 µM; in the assay on HCC-2998 colon, 28.2 µM; in the assay on SF-268 CNS, 50.7 µM. Besides, the concentration for total growth inhibition (TGI) with COLO 205 colon, in the assay on SNB-19 CNS, in the assay on K-562 leukemia, in the assay with ACHN renal, with M14 melanoma and with OVCAR-4 ovarian was over 100 µM each time. For the same compound, the concentration for total growth inhibition (TGI) with NCI-H460 lung was over 100 µM; with SF-539 CNS it was 85.1 µM; in the assay on HCC-2998 colon it was 63.9 µM; with SF-268 CNS it was over 100 µM.

In the case of `CCCc1cc(=O)n2c(C(=O)Nc3cccc(C(=O)OCC)c3)c(C(=O)Nc3ccc(F)cc3)sc2n1`, the GI50 in the assay on COLO 205 colon is 70.8 µM; in the assay with SNB-19 CNS, 25.5 µM; with K-562 leukemia, 60.3 µM; in the assay with ACHN renal it was 4.01 µM; in the assay on M14 melanoma, 9.6 µM; in the assay with OVCAR-4 ovarian, 3.27 µM. Moreover, the GI50 in the assay with NCI-H460 lung is 13.3 µM; in the assay with SF-539 CNS it was 23.8 µM; with HCC-2998 colon, over 140 µM; in the assay on SF-268 CNS it was 26.6 µM. For the same compound, the TGI in the assay on COLO 205 colon was over 140 µM; in the assay with SNB-19 CNS, 132 µM; with K-562 leukemia, over 140 µM; with ACHN renal, 109 µM; with M14 melanoma, 86 µM; in the assay with OVCAR-4 ovarian, 20.9 µM. Besides, the TGI is over 140 µM with NCI-H460 lung, over 140 µM with SF-539 CNS, over 140 µM in the assay with HCC-2998 colon and 128 µM with SF-268 CNS.

Take `COc1cc2ncnc(Nc3cccc(Cl)c3F)c2cc1OC(=O)N1CCN(C)C[C@H]1C`: the GI50 with COLO 205 colon is over 38.1 µM; with SNB-19 CNS it was over 44.8 µM; in the assay with K-562 leukemia, over 30.7 µM; with ACHN renal, 0.273 µM; in the assay with M14 melanoma, over 40.9 µM; in the assay with OVCAR-4 ovarian it was over 44.5 µM. In addition, the GI50 in the assay on NCI-H460 lung is over 48.8 µM; in the assay on SF-539 CNS, over 40.4 µM; in the assay with HCC-2998 colon, over 45.4 µM; in the assay on SF-268 CNS, over 37.1 µM. Besides, the TGI is over 58.1 µM in the assay on COLO 205 colon; over 100 µM in the assay on SNB-19 CNS; over 63.9 µM with K-562 leukemia; over 46.3 µM in the assay on ACHN renal; over 62.8 µM with M14 melanoma; over 79.1 µM with OVCAR-4 ovarian. The TGI in the assay with NCI-H460 lung is over 82.4 µM; in the assay on SF-539 CNS, over 58.9 µM; with HCC-2998 colon, over 70 µM; in the assay on SF-268 CNS it was over 75.3 µM.

Consider `Cn1nc(C(F)(F)F)cc1-c1c[nH]c(OCc2ccc(Cl)cc2)c(-c2ccc(Cl)c(C(F)(F)F)c2)c1=O`, for which the GI50 in the assay with COLO 205 colon is 0.935 µM; with SNB-19 CNS, 1.63 µM; in the assay on K-562 leukemia it was 0.724 µM; with ACHN renal, 1.28 µM; with M14 melanoma it was 1.27 µM; in the assay on OVCAR-4 ovarian it was 1.43 µM. Moreover, the GI50 with NCI-H460 lung is 0.944 µM; with SF-539 CNS, 1.24 µM; in the assay with HCC-2998 colon, 1.23 µM; in the assay on SF-268 CNS it was 1.08 µM. In addition, the TGI with COLO 205 colon was 1.97 µM; in the assay on SNB-19 CNS, over 50 µM; in the assay on K-562 leukemia it was over 50 µM; in the assay with ACHN renal, 4.23 µM; in the assay on M14 melanoma it was 4.26 µM; with OVCAR-4 ovarian, over 50 µM. Also, the TGI in the assay with NCI-H460 lung is 5 µM; in the assay with SF-539 CNS it was 3.96 µM; in the assay on HCC-2998 colon it was 6.56 µM; in the assay on SF-268 CNS it was over 23.8 µM.

Consider `Cn1cc(C2=C(c3c4n(c5ccccc35)CCC(CN)C4)C(=O)NC2=O)c2ccccc21` (stereo not given), for which the GI50 with COLO 205 colon was 1.63 µM; in the assay with SNB-19 CNS it was 3.96 µM; with K-562 leukemia it was 3.54 µM; in the assay on ACHN renal, 3.2 µM; in the assay on M14 melanoma, 3.46 µM; in the assay on OVCAR-4 ovarian it was 2.5 µM. For the same compound, the GI50 is 3.32 µM with NCI-H460 lung, 3.63 µM with SF-539 CNS, 3.49 µM with HCC-2998 colon and 3.95 µM with SF-268 CNS. Further, the concentration for total growth inhibition (TGI) with COLO 205 colon was 5.15 µM; in the assay on SNB-19 CNS, 9.26 µM; in the assay on K-562 leukemia it was 8.27 µM; with ACHN renal it was 7.02 µM; in the assay on M14 melanoma, 7.58 µM; in the assay with OVCAR-4 ovarian, 7.42 µM. In addition, the TGI in the assay with NCI-H460 lung is 7.05 µM; in the assay with SF-539 CNS it was 7.16 µM; in the assay on HCC-2998 colon, 7.14 µM; in the assay on SF-268 CNS, 7.65 µM.

In the case of `N#Cc1c(N2CCOCC2)nc(=S)[nH]c1-c1ccccc1`, the GI50 is 19 µM in the assay on COLO 205 colon; 89.9 µM in the assay with SNB-19 CNS; 52 µM in the assay on K-562 leukemia; 14.1 µM in the assay on ACHN renal; 19.9 µM with M14 melanoma; 65.7 µM in the assay with OVCAR-4 ovarian. Also, the GI50 with NCI-H460 lung was 9.57 µM; in the assay with SF-539 CNS, 13.2 µM; in the assay on HCC-2998 colon it was 77.2 µM; in the assay on SF-268 CNS, 33.5 µM. In addition, the total growth inhibition concentration (TGI) with COLO 205 colon, in the assay with SNB-19 CNS, in the assay with K-562 leukemia, in the assay with ACHN renal, in the assay with M14 melanoma and in the assay on OVCAR-4 ovarian was over 100 µM each time. For the same compound, the TGI in the assay with NCI-H460 lung, in the assay on SF-539 CNS, in the assay with HCC-2998 colon and in the assay on SF-268 CNS was over 100 µM in each case.
